Patent US20240150301A1, “METHODS OF MODULATING ANDROGEN RECEPTOR CONDENSATES” (ETERN BIOPHARMA (SHANGHAI) CO., LTD., priority 2021, published 2024)
Substitutions are numbered along the chain they refer to. Entries after “also recorded” stand apart in the source; their conditions may differ.

Experiments:
Format in all cases: cell-based
AR F877L/T878A = target: T1, AR F877L/T878A (Homo sapiens, UniProt P10275, F877L/T878A); assay: Live-cell imaging of AR puncta (LLPS) in LNCaP cells, AR F877L/T878A-mEGFP; conditions: 10 μM compound, 1 nM DHT
T1 construct: expressed in transfected cells; host or cells: LNCaP
T1 sequence (P10275 1-920 F877L/T878A): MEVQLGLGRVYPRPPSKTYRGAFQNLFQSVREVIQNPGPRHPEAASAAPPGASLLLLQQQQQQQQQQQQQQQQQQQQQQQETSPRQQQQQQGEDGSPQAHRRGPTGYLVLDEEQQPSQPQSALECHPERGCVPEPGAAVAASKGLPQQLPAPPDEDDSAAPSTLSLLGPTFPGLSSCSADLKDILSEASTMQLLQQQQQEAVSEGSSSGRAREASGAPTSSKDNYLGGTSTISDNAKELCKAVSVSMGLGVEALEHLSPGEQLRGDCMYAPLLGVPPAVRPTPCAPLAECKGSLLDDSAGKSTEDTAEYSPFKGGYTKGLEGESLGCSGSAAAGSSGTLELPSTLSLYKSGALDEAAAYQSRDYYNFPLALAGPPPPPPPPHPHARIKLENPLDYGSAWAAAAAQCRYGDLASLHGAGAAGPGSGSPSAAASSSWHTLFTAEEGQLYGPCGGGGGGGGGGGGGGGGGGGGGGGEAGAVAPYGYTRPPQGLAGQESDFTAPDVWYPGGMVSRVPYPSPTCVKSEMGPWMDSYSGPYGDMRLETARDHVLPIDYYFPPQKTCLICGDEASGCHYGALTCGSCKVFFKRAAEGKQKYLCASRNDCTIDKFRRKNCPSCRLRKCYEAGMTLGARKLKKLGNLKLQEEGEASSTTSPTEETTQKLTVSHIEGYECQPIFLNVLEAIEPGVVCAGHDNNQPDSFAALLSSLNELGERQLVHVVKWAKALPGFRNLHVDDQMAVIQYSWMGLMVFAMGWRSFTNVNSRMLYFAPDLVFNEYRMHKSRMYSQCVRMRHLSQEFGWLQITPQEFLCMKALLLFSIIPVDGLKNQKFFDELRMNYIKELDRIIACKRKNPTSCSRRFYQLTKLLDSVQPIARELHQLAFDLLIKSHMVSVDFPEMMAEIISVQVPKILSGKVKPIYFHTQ
Method: (§1) Cells were grown on 24-well glass bottom plate (Cellvis, P24-1.5H-N) and images were taken with the Leica TCS SP8 confocal microscopy system using a 100× oil objective (NA=1.4). Cells were imaged on a heated stage (37° C.) and supplemented with warmed (37° C.) humidified air. The microscope was enclosed in an incubation chamber heated to 37° C.
(§2) For compounds treatment assay, LNCaP cells were transfected with an expression vector for AR (AR or AR F877L/T878A)-mEGFP using steroid hormone-free and phenol red-free RPMI media for 24 hours before compound treatment. After 10 μM compounds treatment for 3 hour, LNCaP cells were added with 1 nM DHT. For ligand-independent AR V7-mEGFP expressing LNCaP cells, starvation step is skipped and compounds were added 12 hours after transfection. The final concentration of DMSO was 0.1%. Cells were subjected to microscopic observation every 30 mins after DHT/compounds were added.
(§3) Data was analyzed by images collected from 100 representative fields in each group. The spots quantification was performed based on the area and intensity of the spots through green (AR-mEGFP) channel. Fluorescent images were processed and assembled into figures using LAS X (Leica) and Fiji.
(§4) After 10 μM compounds treatment for 3 hour, LNCaP cells were added with 1 nM DHT. […]

AR = target: T2, AR (Homo sapiens, UniProt P10275); assay: Live-cell imaging of AR puncta (LLPS) in LNCaP cells, AR-mEGFP; conditions: 10 μM compound, 1 nM DHT
T2 construct: expressed in transfected cells; host or cells: LNCaP
T2 sequence (P10275 1-920): T1 sequence (P10275 1-920 F877L/T878A) with L877F, A878T
Method: as §1, §2, §3, §4

VCaP cells = assay: Cell proliferation assay (CellTiter-Glo), VCaP; conditions: Homo sapiens, 96 h, 4 days, read-out: VCaP IC50 AR-positive, AR-V7 positive (cell proliferation)
Method: To evaluate the effect of exemplary compounds on proliferation of AR/AR-V7-dependent prostate cancer cells, cell viability assay was performed in LNCaP (AR-positive), 22Rv1 (AR-positive; AR-V7 positive), VCaP (AR-positive; AR-V7 positive), and DU145 (AR-negative) cells, respectively.
LNCaP cells were seeded in charcoal stripped FBS/phenol red-free RPMI medium in 96-well plates for 24 h before pretreating for 1 h with test compounds prior to addition of 0.2 nM DHT for 4 days. 22Rv1 or VCaP cells were cultured in charcoal stripped FBS/phenol red-free RPMI medium for 24 h before addition of test compounds for 4 days. DU145 cells were seeded in complete medium for 24 h before addition of test compounds for 4 days. Cell proliferation was measured with CellTiter-Glo® Luminescent Cell Viability Assay (Promega). In LNCaP cells, DHT-dependent cell growth is calculated by measuring the difference between vehicle control (DMSO) cells treated with or without 0.2 nM DHT. The IC50 values were determined using the four parameter fit via GraphPad Prism graphing software.

Structure (SMILES) | puncta formation / LLPS of enzalutamide-resistant AR mutant F877L/T878A (AR F877L/T878A) | puncta formation / LLPS of AR (AR) | IC50 (VCaP cells)
CC(C)(c1ccc(C#Cc2cnc(NS(C)(=O)=O)nc2)cc1)c1cc(Cl)c(OCCCl)c(C#N)c1 [Compound 60, N-(5-((4-(2-(3-chloro-4-(2-chloroethoxy)-5-cyanophenyl)propan-2-yl)phenyl)ethynyl)pyrimidin-2-yl)methanesulfonamide] | could suppress the phase separation; also recorded: abolished the puncta formation; also recorded: impaired the LLPS | could suppress the phase separation; also recorded: abolished the puncta formation | –
CC(C)(c1ccc(OCc2ccnc(NS(C)(=O)=O)n2)cc1)c1cc(Cl)c(OCCCl)c(C#N)c1 [Compound AA, N-(4-((4-(2-(3-chloro-4-(2-chloroethoxy)-5-cyanophenyl)propan-2-yl)phenoxy)methyl)pyrimidin-2-yl) methane sulfonamide, reference compound] | – | – | > 20 µM
